Tested on: cancer in situ and cervicitis
Assay: Effect of Oxytocin on Cancer in Situ and Cervicitis in Humans (Pap smear test)
Assay type: in vivo
Conditions: one patient with cancer in situ and cervicitis; oxytocin 1 mg/ml mixed with 1 ml cellulose gel intravaginally during five consecutive days
Method: Patients. 20 women, all aged 60–70 years, with postmenopausal disorders, participated in a double blind cross-over randomised protocol, which means that the patients receive both oxytocin and control treatment without knowing the order of the treatments.
Experimental procedure. The patients were treated with oxytocin 1 mg/ml mixed with 1 ml cellulose gel intravaginally during five consecutive days to relieve the postmenopausal disorders. However, it was discovered that one of the patients suffered from cancer in situ and cervicitis before the oxytocin treatment. This was established by the fact that the patient underwent a Pap smear test before the oxytocin treatment. In this test, cells desquamated from the genital epithelium are obtained by smears, fixed and stained, and examined under the microscope for evidence of pathologic changes. After the oxytocin treatment, the patient also underwent a Pap smear test.

## oxytocin
  results of the Pap smear tests before and after oxytocin administration: the cancer in situ and cervicitis was removed
